In ChEMBL document CHEMBL3272199, “Beta-lactam antibiotics with N-oxide side chains. 1. Quinoxaline N-oxides” (1976):
In brackets after ≈: the same amount, converted by molar mass. Activity calls are given as the source filed them. No cut-off for these calls is given here.

Experiments:
Staphylococcus aureus [1] = test: Antibacterial activity against Staphylococcus aureus assessed as growth inhibition incubated for 24 hrs using acid chloride; type: functional
Salmonella [2] = test: Antibacterial activity against Salmonella schottmuelleri assessed as growth inhibition incubated for 24 hrs using acid chloride; type: functional
Proteus mirabilis = test: Antimicrobial activity against Proteus mirabilis infected in mouse assessed as growth inhibition at 250 mg/kg; type: functional, organism-based; parameters: dose 250 mg/kg
Pseudomonas aeruginosa = test: Antimicrobial activity against Pseudomonas aeruginosa infected in mouse assessed as growth inhibition at 250 mg/kg; type: functional, organism-based; parameters: dose 250 mg/kg
Staphylococcus aureus [3] = test: Antibacterial activity against Staphylococcus aureus assessed as zone of inhibition at 100 ug/ml incubated for 24 hrs; type: functional, organism-based
Staphylococcus aureus [4] = test: Antibacterial activity against Staphylococcus aureus assessed as growth inhibition incubated for 24 hrs using mixed anhydride; type: functional
Salmonella [5] = test: Antibacterial activity against Salmonella schottmuelleri assessed as growth inhibition incubated for 24 hrs using mixed anhydride; type: functional

| Structure (SMILES) | MIC (Staphylococcus aureus [1]) | MIC (Salmonella [2]) | Activity (Proteus mirabilis) | Activity (Pseudomonas aeruginosa) | inhibition zone (IZ) (Staphylococcus aureus [3]) | MIC (Staphylococcus aureus [4]) | MIC (Salmonella [5]) |
| --- | --- | --- | --- | --- | --- | --- | --- |
| CC1(C)S[C@@H]2[C@H](NC(=O)c3c(-c4ccccc4)[n+]([O-])c4ccccc4[n+]3[O-])C(=O)N2[C@H]1C(=O)[O-].[Na+] | 100 µg/mL | 1000 µg/mL | inactive | inactive | Active | – | – |
| Cc1c(CC(=O)N[C@@H]2C(=O)N3C(C(=O)O)=C(C[O-])CS[C@H]23)[n+]([O-])c2ccccc2[n+]1[O-].[Na+] | – | – | inactive | inactive | Active | 1000 µg/mL | > 1000 µg/mL |
| CCOC(=O)c1c(CCC(=O)N[C@@H]2C(=O)N3[C@@H]2SC(C)(C)[C@@H]3C(=O)[O-])[n+]([O-])c2ccccc2[n+]1[O-].[Na+] | – | – | inactive | inactive | – | 10 µg/mL | 1000 µg/mL |
| CC1(C)S[C@@H]2[C@H](NC(=O)Cc3ccccc3)C(=O)N2[C@H]1C(=O)O [PENICILLIN G] | 10 µg/mL (≈ 29.9 µM) | 10 µg/mL (≈ 29.9 µM) | – | – | – | 10 µg/mL (≈ 29.9 µM) | 10 µg/mL (≈ 29.9 µM) |
| Cc1c(CC(=O)N[C@@H]2C(=O)N3[C@@H]2SC(C)(C)[C@@H]3C(=O)[O-])[n+]([O-])c2ccccc2[n+]1[O-].[Na+] | – | – | inactive | inactive | – | 100 µg/mL | 1000 µg/mL |
| CC1(C)S[C@@H]2[C@H](NC(=O)CCCc3c(-c4ccccc4)[n+]([O-])c4ccccc4[n+]3[O-])C(=O)N2[C@H]1C(=O)[O-].[Na+] | – | – | inactive | inactive | – | 10 µg/mL | > 1000 µg/mL |
| CCOC(=O)c1c(C(=O)N[C@@H]2C(=O)N3[C@@H]2SC(C)(C)[C@@H]3C(=O)[O-])nc2ccccc2[n+]1[O-].[Na+] | 100 µg/mL | 1000 µg/mL | inactive | inactive | Active | – | – |
| Cc1c(C(=O)N[C@@H]2C(=O)N3[C@@H]2SC(C)(C)[C@@H]3C(=O)[O-])[n+]([O-])c2ccccc2[n+]1[O-].[Na+] | 100 µg/mL | 1000 µg/mL | inactive | inactive | – | – | – |
| Cc1c(C)[n+]([O-])c2cc(C(=O)N[C@@H]3C(=O)N4[C@@H]3SC(C)(C)[C@@H]4C(=O)[O-])ccc2[n+]1[O-].[Na+] | – | – | inactive | inactive | – | 100 µg/mL | > 1000 µg/mL |
